# From the NIST ThermoML archive (doi:10.1021/je050003x)
# Assay: cn = amount concentration of the nth substance listed, in mol/dm3
# Settings: 101.3 kPa, Liquid, Open capillary
smiles,measurement,setting,value
[Cl-].[Cl-].[Cl-].[Cr+3] [chromium chloride] + O,binary diffusion coefficient,"298.15 K, c1 = 0.005",1.33e-09 m2/s
same,binary diffusion coefficient,"298.15 K, c1 = 0.008",1.2e-09 m2/s
same,binary diffusion coefficient,"298.15 K, c1 = 0.01",1.17e-09 m2/s
same,binary diffusion coefficient,"298.15 K, c1 = 0.02",1.1e-09 m2/s
same,binary diffusion coefficient,"298.15 K, c1 = 0.03",1.06e-09 m2/s
same,binary diffusion coefficient,"298.15 K, c1 = 0.05",1.03e-09 m2/s
same,binary diffusion coefficient,"303.15 K, c1 = 0.005",1.85e-09 m2/s
same,binary diffusion coefficient,"303.15 K, c1 = 0.008",1.33e-09 m2/s
same,binary diffusion coefficient,"303.15 K, c1 = 0.01",1.31e-09 m2/s
same,binary diffusion coefficient,"303.15 K, c1 = 0.02",1.26e-09 m2/s
same,binary diffusion coefficient,"303.15 K, c1 = 0.03",1.2e-09 m2/s
same,binary diffusion coefficient,"303.15 K, c1 = 0.05",1.17e-09 m2/s
